# In patent US20030229906A1, “Methods and compositions for the treatment of disorders of HIV infection” (priority 2002, published 2003):
# Columns and labels:
# [1] = test system: HIVAN in transgenic mice; settings: by inhibiting cellular Cdk9, an enzyme required for HIV-1 Tat to induce LTR-mediated virus transcription; cited from earlier work
# [2] = target: Src tyrosine kinase (mouse) (UniProt P05480); assay: cell-based or functional assay
Compound,effect on HIVAN in transgenic mice [1],"specific activity of the Src tyrosine kinase (immune-complex kinase assay with [gamma-32P]-ATP and enolase, podocytes transduced with Nef or vector) [2] [fold]"
CN1CC[C@H](c2c(O)cc(O)c3c(=O)cc(-c4ccccc4Cl)oc23)[C@H](O)C1 [flavopiridol],ameliorates HIVAN,
HIV-1 Nef,,2.3
